Experimental data as given in patent publication US20240158446A1, “CYCLIC COMPOUND HAVING SELECTIVE INHIBITORY ACTION ON KRAS OVER HRAS AND NRAS” (CHUGAI SEIYAKU KABUSHIKI KAISHA, priority 2021, published 2024).
Like-named read-outs stand apart in the source and are kept apart here. *1 amine or outer side, *2 acyl side, *3 side chain or, on linkers, in order; H or OH if unused. Where a SMILES comes first, the peptide text is derived from it. Bridges are numbered along the chain shown (N, C = ends). [ ]: non-standard residue; d: D form. The star is where a group is joined. hPhe(3,5-F2-4-CF3) = N[C@@H](CCc1cc(F)c(C(F)(F)F)c(F)c1)C(=O)O; hPhe(3-Cl-4-CF3) = N[C@@H](CCc1ccc(C(F)(F)F)c(Cl)c1)C(=O)O; NPrPhe(4-CF3) = CCCN[C@@H](Cc1ccc(C(F)(F)F)cc1)C(=O)O; X28 = COCCCN([C@@H](Cc1ccc(C)cc1)C(=O)[*:2])[*:1]; NEtPhe(4-Me) = CCN[C@@H](Cc1ccc(C)cc1)C(=O)O; NMeGly(cPent) = CN[C@H](C(=O)O)C1CCCC1; NMeD = CN[C@@H](CC(=O)O)C(=O)O; NMeL = CN[C@@H](CC(C)C)C(=O)O; Morpholide = C1CN(*)CCO1; NMeA = CN[C@@H](C)C(=O)O; Ac5c = NC1(C(=O)O)CCCC1; Aze = O=C(O)[C@@H]1CCN1; Sar = CNCC(=O)O

What was measured:
[1] = target: GDP-bound KRAS wild-type protein (Homo sapiens, UniProt P01116); assay: Binding to KRAS by surface plasmon resonance (SPR), Single Cycle Kinetics; conditions: GDP-bound KRAS wild-type protein, read-out: KRAS KD
[2] = target: GDP-bound NRAS wild-type protein (Homo sapiens, UniProt P01111); assay: Binding to NRAS by surface plasmon resonance (SPR), Single Cycle Kinetics; conditions: for NRAS/KRAS (ratio of KD value for NRAS to KD value for KRAS) / NRAS/KRAS (ratio of KD value with respect to NRAS to KD value with respect to KRAS): SPR, GDP-bound NRAS wild-type protein vs GDP-bound KRAS wild-type protein
[3] = target: GDP-bound HRAS wild-type protein (Homo sapiens, UniProt P01112); assay: Binding to HRAS by surface plasmon resonance (SPR), Single Cycle Kinetics; conditions: for HRAS/KRAS (ratio of KD value for HRAS to KD value for KRAS) / HRAS/KRAS (ratio of KD value with respect to HRAS to KD value with respect to KRAS): SPR, GDP-bound HRAS wild-type protein vs GDP-bound KRAS wild-type protein
[4] = SPR Single Cycle Kinetics, 1:1 binding model
[5] = SPR, Single Cycle Kinetics, 1:1 binding model

GDP-bound HRAS wild-type protein, sequence (P01112 whole entry): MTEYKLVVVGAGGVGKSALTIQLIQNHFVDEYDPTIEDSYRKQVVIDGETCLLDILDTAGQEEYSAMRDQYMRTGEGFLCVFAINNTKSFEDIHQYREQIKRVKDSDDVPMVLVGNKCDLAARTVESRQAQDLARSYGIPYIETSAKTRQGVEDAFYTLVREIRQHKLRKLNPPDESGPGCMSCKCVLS
GDP-bound NRAS wild-type protein, sequence (P01111 whole entry): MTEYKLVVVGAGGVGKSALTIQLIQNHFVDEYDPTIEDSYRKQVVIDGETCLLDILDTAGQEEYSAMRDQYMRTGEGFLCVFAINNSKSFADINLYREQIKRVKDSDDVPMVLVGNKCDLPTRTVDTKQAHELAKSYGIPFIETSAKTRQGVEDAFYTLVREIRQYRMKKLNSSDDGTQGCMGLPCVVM
GDP-bound KRAS wild-type protein, sequence (P01116 whole entry): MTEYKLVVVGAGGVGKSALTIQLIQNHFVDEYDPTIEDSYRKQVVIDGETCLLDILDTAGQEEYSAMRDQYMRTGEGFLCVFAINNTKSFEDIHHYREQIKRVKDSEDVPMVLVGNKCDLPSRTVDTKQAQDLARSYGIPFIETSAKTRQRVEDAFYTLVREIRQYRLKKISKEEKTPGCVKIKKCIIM

CC[C@H](C)[C@@H]1NC(=O)[C@H](CC(C)C)N(C)C(=O)C[C@@H](C(=O)N2CCOCC2)N(C)C(=O)[C@H](CC(C)C)N(C)C(=O)C2(CCCC2)NC(=O)[C@@H]2CCCN2C(=O)[C@H](CCc2ccc(C(F)(F)F)c(Cl)c2)NC(=O)CN(C)C(=O)[C@H](Cc2ccc(C)cc2)N(CC)C(=O)CN(C)C(=O)CN(C)C1=O [PP0045] ([NMeL]I[Sar][Sar][NEtPhe(4-Me)][Sar][hPhe(3-Cl-4-CF3)]P[Ac5c][NMeL][NMeD]-Morpholide; lactam N-11)
Kd [1, 4]: 2300 pM | NRAS/KRAS (ratio of KD value for NRAS to KD value for KRAS) [2]: C (A compound having a KD ratio of 0.1 or more and less than 3 is denoted as C) | HRAS/KRAS (ratio of KD value for HRAS to KD value for KRAS) [3]: C (A compound having a KD ratio of 0.1 or more and less than 3 is denoted as C)

CCO[C@@H]1C[C@H]2C(=O)NC3(CCCC3)C(=O)N(C)[C@@H](C3CCCC3)C(=O)N(C)[C@H](C(=O)N(C)CC)CC(=O)N(C)[C@@H](CC(C)C)C(=O)N[C@@H]([C@@H](C)CC)C(=O)N(C)CC(=O)N(C)[C@H]3C/C=C\CCN(C3=O)[C@@H](Cc3ccc(C(F)(F)F)cc3)C(=O)N(C)CC(=O)N[C@@H](CCc3cc(F)c(C(F)(F)F)c(F)c3)C(=O)N2C1 [PP1574, (2S,8S,12R,14S,20S,23S,27S,30S,36S,38Z)-20-cyclopentyl-8-[2-[3,5-difluoro-4-(trifluoromethyl)phenyl]ethyl]-12-ethoxy-N-ethyl-27-isobutyl-N,4,19,22,26,32,35-heptamethyl-30-[(1S)-1-methylpropyl]-3,6,9,15,18,21,25,28,31,34,42-undecaoxo-2-[[4-(trifluoromethyl)phenyl]methyl]spiro[1,4,7,10,16,19,22,26,29,32,35-undecazatricyclo[34.5.1.0^10,14]dotetracont-38-ene-17,1′-cyclopentane]-23-carboxamide]
Kd [1, 5]: 150 pM | NRAS/KRAS (ratio of KD value for NRAS to KD value for KRAS) ([2]; KD ratio class): A (a compound having 10 or more and less than 20 is denoted as A) | HRAS/KRAS (ratio of KD value for HRAS to KD value for KRAS) ([3]; KD ratio class): A (a compound having 10 or more and less than 20 is denoted as A)

CCO[C@@H]1C[C@H]2C(=O)NC3(CCCC3)C(=O)N(C)[C@@H](C3CCCC3)C(=O)N(C)[C@H](C(=O)N(C)C)CC(=O)N(C)[C@@H](C)C(=O)N[C@@H]([C@@H](C)CC)C(=O)N(C)CC(=O)N(C)[C@H]3C/C=C\CCN(C3=O)[C@@H](Cc3ccc(C(F)(F)F)cc3)C(=O)N(C)CC(=O)N[C@@H](CCc3cc(F)c(C(F)(F)F)c(F)c3)C(=O)N2C1 [PP1104, (2S,8S,12R,14S,20S,23S,27S,30S,36S,38Z)-20-cyclopentyl-8-[2-[3,5-difluoro-4-(trifluoromethyl)phenyl]ethyl]-12-ethoxy-N,N,4,19,22,26,27,32,35-nonamethyl-30-[(1S)-1-methylpropyl]-3,6,9,15,18,21,25,28,31,34,42-undecaoxo-2-[[4-(trifluoromethyl)phenyl]methyl]spiro[1,4,7,10,16,19,22,26,29,32,35-undecazatricyclo[34.5.1.0^10,14]dotetracont-38-ene-17,1′-cyclopentane]-23-carboxamide]
Kd ([1]; SPR, Single Cycle Kinetics): 59 pM | NRAS/KRAS (ratio of KD value for NRAS to KD value for KRAS) [2]: A (a compound having 10 or more and less than 20 is denoted as A) | HRAS/KRAS (ratio of KD value for HRAS to KD value for KRAS) [3]: A (a compound having 10 or more and less than 20 is denoted as A)

CC[C@H](C)[C@@H]1NC(=O)[C@H](C)N(C)C(=O)C[C@@H](C(=O)N(C)C)N(C)C(=O)[C@H](C2CCCC2)N(C)C(=O)C2(CCCC2)NC(=O)[C@@H]2CC(F)(F)CN2C(=O)[C@H](CCc2cc(F)c(C(F)(F)F)c(F)c2)NC(=O)CN(C)C(=O)[C@H](Cc2ccc(C(F)(F)F)cc2)N2CCCCC[C@@H](C2=O)N(C)C(=O)CN(C)C1=O [PP0472]
Kd [1, 4]: 770 pM | NRAS/KRAS (ratio of KD value with respect to NRAS to KD value with respect to KRAS) [2]: B (a compound having 3 or more and less than 10 is denoted as B) | HRAS/KRAS (ratio of KD value with respect to HRAS to KD value with respect to KRAS) [3]: B (a compound having 3 or more and less than 10 is denoted as B)

CCCN1C(=O)CN(C)C(=O)[C@@H]2CCN2C(=O)[C@H]([C@@H](C)CC)NC(=O)[C@H](CC(C)C)N(C)C(=O)C[C@@H](C(=O)N2CCOCC2)N(C)C(=O)[C@H](C2CCCC2)N(C)C(=O)C2(CCCC2)NC(=O)[C@@H]2CCCN2C(=O)[C@H](CCc2cc(F)c(C(F)(F)F)c(F)c2)NC(=O)CN(C)C(=O)[C@@H]1Cc1ccc(C(F)(F)F)cc1 [PP0770] ([NMeL]I[Aze][Sar][NPrPhe(4-CF3)][Sar][hPhe(3,5-F2-4-CF3)]P[Ac5c][NMeGly(cPent)][NMeD]-Morpholide; lactam N-11)
Kd [1, 4]: 840 pM | NRAS/KRAS (ratio of KD value with respect to NRAS to KD value with respect to KRAS) [2]: B (a compound having 3 or more and less than 10 is denoted as B) | HRAS/KRAS (ratio of KD value with respect to HRAS to KD value with respect to KRAS) [3]: B (a compound having 3 or more and less than 10 is denoted as B)

CC[C@H](C)[C@@H]1NC(=O)[C@@H]2CCC/C=C/c3ccc(cc3)C[C@@H](C(=O)N(C)CC(=O)N[C@@H](CCc3ccc(Cl)c(Cl)c3)C(=O)N3CCC[C@H]3C(=O)NC3(CC(C)(C)C3)C(=O)N(C)[C@@H](C3CCCC3)C(=O)N(C)[C@H](C(=O)N3CCCC3)CC(=O)N2C)N2CC/C=C\C[C@@H](C2=O)N(C)C(=O)CN(C)C1=O [PP2602]
Kd [1, 4]: 250 pM | NRAS/KRAS (ratio of KD value with respect to GDP-bound NRAS wild-type protein to KD value with respect to KRAS) ([2]; SPR KD ratio NRAS/KRAS, class symbols): A (a compound having 10 or more and less than 20 is denoted as A) | HRAS/KRAS (ratio of KD value with respect to GDP-bound HRAS wild-type protein to KD value with respect to KRAS) ([3]; SPR KD ratio HRAS/KRAS, class symbols): A (a compound having 10 or more and less than 20 is denoted as A)

CCC[C@H]1C(=O)N[C@@H]([C@@H](C)CC)C(=O)N(C2CC2)CC(=O)N(C)[C@H]2C/C=C\CCN(C2=O)[C@@H](Cc2ccc(C(F)(F)F)cc2)C(=O)N(C)CC(=O)N[C@@H](CCc2ccc(C(F)(F)F)c(OC)c2)C(=O)N2C[C@H](OCC)C[C@H]2C(=O)N(C)C2(CCC2)C(=O)N(C)[C@@H](C(CC)CC)C(=O)N(C)[C@H](C(=O)N(C)C)CC(=O)N1C [PP2313]
Kd ([1]; SPR, Single Cycle Kinetics): 490 pM | NRAS/KRAS (ratio of KD value for NRAS to KD value for KRAS) [2]: AA (a compound having 20 or more is denoted as AA) | HRAS/KRAS (ratio of KD value for HRAS to KD value for KRAS) [3]: A (a compound having 10 or more and less than 20 is denoted as A)

CC[C@H](C)[C@@H]1NC(=O)[C@H](CC(C)C)N(C)C(=O)C[C@@H](C(=O)N2CCOCC2)N(C)C(=O)[C@H](C2CCCC2)N(C)C(=O)C2(CCCC2)NC(=O)[C@@H]2CCCN2C(=O)[C@H](CCc2ccc(C(F)(F)F)c(Cl)c2)NC(=O)CN(C)C(=O)[C@H](Cc2ccc(C)cc2)N(CCCOC)C(=O)[C@@H]2CCN2C(=O)[C@H](C)N(C)C1=O [PP0093] ([NMeL]I[NMeA][Aze][X28][Sar][hPhe(3-Cl-4-CF3)]P[Ac5c][NMeGly(cPent)][NMeD]-Morpholide; lactam N-11)
Kd [1, 4]: 76 pM | NRAS/KRAS (ratio of KD value for NRAS to KD value for KRAS) [2]: C (A compound having a KD ratio of 0.1 or more and less than 3 is denoted as C) | HRAS/KRAS (ratio of KD value for HRAS to KD value for KRAS) [3]: B (a compound having 3 or more and less than 10 is denoted as B)

CC[C@H](C)[C@@H]1NC(=O)[C@H](CC2CC2)N(C)C(=O)C[C@@H](C(=O)N(CC)CC)N(C)C(=O)[C@H](C2CCCC2)N(C)C(=O)C2(CC(C)(C)C2)NC(=O)[C@@H]2C[C@@H](F)CN2C(=O)[C@H](CCc2cc(F)c(C(F)(F)F)c(F)c2)NC(=O)CN(C)C(=O)[C@H](Cc2ccc(C(F)(F)F)cc2)N2CC/C=C\C[C@@H](C2=O)N(C)C(=O)CN(C)C1=O [PP1571]
Kd [1, 5]: 150 pM | NRAS/KRAS (ratio of KD value for NRAS to KD value for KRAS) ([2]; KD ratio class): A (a compound having 10 or more and less than 20 is denoted as A) | HRAS/KRAS (ratio of KD value for HRAS to KD value for KRAS) ([3]; KD ratio class): A (a compound having 10 or more and less than 20 is denoted as A)

CC[C@H](C)[C@@H]1NC(=O)[C@H](CC2CC2)N(C)C(=O)C[C@@H](C(=O)N(C)C)N(C)C(=O)[C@H](C2CCCC2)N(C)C(=O)C2(CCC2)NC(=O)[C@@H]2C[C@H](C)CN2C(=O)[C@H](CCc2cc(F)c(C(F)(F)F)c(F)c2)NC(=O)CN(C)C(=O)[C@H](Cc2ccc(C(F)(F)F)cc2)N2CC/C=C\C[C@@H](C2=O)N(C)C(=O)CN(C)C1=O [PP1499, (2S,8S,12S,14S,20S,23S,27S,30S,36S,38Z)-20-cyclopentyl-27-(cyclopropylmethyl)-8-[2-[3,5-difluoro-4-(trifluoromethyl)phenyl]ethyl]-N,N,4,12,19,22,26,32,35-nonamethyl-30-[(1S)-1-methylpropyl]-3,6,9,15,18,21,25,28,31,34,42-undecaoxo-2-[[4-(trifluoromethyl)phenyl]methyl]spiro[1,4,7,10,16,19,22,26,29,32,35-undecazatricyclo[34.5.1.0^10,14]dotetracont-38-ene-17,1′-cyclobutane]-23-carboxamide]
Kd [1, 5]: 54 pM | NRAS/KRAS (ratio of KD value for NRAS to KD value for KRAS) ([2]; KD ratio class): A (a compound having 10 or more and less than 20 is denoted as A) | HRAS/KRAS (ratio of KD value for HRAS to KD value for KRAS) ([3]; KD ratio class): B (a compound having 3 or more and less than 10 is denoted as B)

CC[C@H](C)[C@@H]1NC(=O)[C@H](CC(C)C)N(C)C(=O)C[C@@H](C(=O)N(C)C)N(C)C(=O)[C@H](C2CCCC2)N(C)C(=O)C2(CCCC2)NC(=O)[C@@H]2CCCN2C(=O)[C@H](CCc2cc(F)c(C(F)(F)F)c(F)c2)NC(=O)CN(C)C(=O)[C@H](Cc2ccc(C(F)(F)F)cc2)N2CCCCC[C@@H](C2=O)N(C)C(=O)CN(CC)C1=O [PP0514]
Kd [1, 4]: 11000 pM | NRAS/KRAS (ratio of KD value with respect to NRAS to KD value with respect to KRAS) [2]: B (a compound having 3 or more and less than 10 is denoted as B) | HRAS/KRAS (ratio of KD value with respect to HRAS to KD value with respect to KRAS) [3]: B (a compound having 3 or more and less than 10 is denoted as B)
